Results taken from paper PMC3648344 (BMC Structural Biology, 2013).

Biological target: T1, ecMnmC (Escherichia coli, UniProt P77182)
T1 construct: gene mnmC; full-length bifunctional MnmC, 668 residues, ~75 kDa monomer; N-terminal His6 tag removed with thrombin; pET30a-LIC, expressed in E. coli BL21(DE3)
T1 sequence (P77182 1-668): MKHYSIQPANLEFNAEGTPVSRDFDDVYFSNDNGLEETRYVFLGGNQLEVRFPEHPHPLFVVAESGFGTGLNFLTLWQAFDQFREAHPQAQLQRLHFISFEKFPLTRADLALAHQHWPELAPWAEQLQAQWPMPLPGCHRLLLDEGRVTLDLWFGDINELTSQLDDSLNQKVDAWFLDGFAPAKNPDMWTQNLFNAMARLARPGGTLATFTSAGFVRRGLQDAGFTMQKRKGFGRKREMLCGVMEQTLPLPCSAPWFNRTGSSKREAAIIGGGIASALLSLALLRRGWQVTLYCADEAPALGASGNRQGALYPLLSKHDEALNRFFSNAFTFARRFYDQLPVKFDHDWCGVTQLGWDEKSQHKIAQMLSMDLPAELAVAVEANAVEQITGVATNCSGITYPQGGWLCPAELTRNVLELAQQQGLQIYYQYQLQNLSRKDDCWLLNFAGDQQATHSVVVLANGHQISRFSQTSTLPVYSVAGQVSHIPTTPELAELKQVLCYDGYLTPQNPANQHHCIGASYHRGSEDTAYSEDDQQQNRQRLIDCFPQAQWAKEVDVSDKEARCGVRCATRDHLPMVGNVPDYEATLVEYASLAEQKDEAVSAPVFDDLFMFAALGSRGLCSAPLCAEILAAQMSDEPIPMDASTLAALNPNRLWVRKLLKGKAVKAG
Experiment: X-ray crystal structure, […] Å
Assay type: binding

Row | SMILES | X-ray crystal structure, 2.55 Å (co-purified FAD, none added, SAM bound, MnmC1 domain site) | X-ray crystal structure, 2.55 Å (crystals soaked with 5 mM SAM, FAD bound, MnmC2 domain site)
1 | Cc1cc2nc3c(=O)[nH]c(=O)nc-3n(C[C@H](O)[C@H](O)[C@H](O)COP(=O)(O)OP(=O)(O)OC[C@H]3O[C@@H](n4cnc5c(N)ncnc54)[C@H](O)[C@@H]3O)c2cc1C [FAD] | All three MnmC structures unambiguously exhibited bound FAD (Figure 4A) | 
2 | C[S+](CC[C@H](N)C(=O)O)C[C@H]1O[C@@H](n2cnc3c(N)ncnc32)[C@H](O)[C@@H]1O (some centres unmarked) [SAM] |  | Our structures show that ecMnmC and ypMnmC bind SAM in an almost identical manner
